Test results taken from patent US11779620B2 (priority 2020, dated 2023).

Key:
[1] = system: human PBMC cultures; assay: Induction of CD69 activation marker on immune cell subsets in PBMC cultures (Trametes versicolor study); assay type: cell-based; settings: 24 h, positive controls LPS 10 ng/mL, IL-2 100 IU/mL, mean±SD
[2] = system: human PBMC cultures; assay: Cytokine, chemokine and growth factor levels in PBMC culture supernatants (medicinal mushroom blend study); assay type: cell-based; settings: LPS-treated control cultures (10 ng/mL), 24 h, mean±SD
Protocol: The powder was handled in the following manner, using pyrogen-free disposables: A 100 mg/mL suspension was prepared in phosphate-buffered saline (PBS) and allowed to rehydrate and extract aqueous compounds for 1 hour at 20° C. under gentle agitation. The suspension was centrifuged at 400 g for 10 minutes, and the aqueous fraction harvested. Ethanol (95%) was added to the pellet and vortexed, and extraction of non-aqueous, ethanol-soluble compounds allowed for 1 hour at 20° C. under gentle agitation. The suspension was centrifuged at 400 g for 10 minutes, and the ethanol fraction harvested. The remaining solid pellet was resuspended in PBS. The aqueous and ethanol fractions were filtered through a 0.22-micron syringe filter before adding to cell cultures. The solid fraction was passed through homogenization spin columns (QIAshredder, Qiagen, […].), but were not filtered through a 0.22-micron filter. From each fraction, serial dilutions were made in pyrogen-free physiological saline. See also FIG. 9.
Peripheral venous blood was drawn from three healthy human donors upon written informed consent, as approval by the Sky Lakes Medical Center Institutional Review Board, Federalwide Assurance 2603. The blood was drawn into heparin vacutainer vials, and the peripheral blood mononuclear cells (PBMC) isolated using Lympholyte Poly by centrifugation for 35 minutes at 400×g. The PBMC were washed twice in PBS, counted, and the density adjusted to establish cultures with a cell density of 10^6/mL, using Roswell Park Memorial Institute (RPMI) 1640 medium containing penicillin, streptomycin, and fetal bovine serum.
The highly inflammatory lipopolysaccharide (LPS) from Salmonella enterica was used as a positive control for immune-cell activation. Serial dilutions of products or LPS (10 ng/mL) were added to cultures at a volume of 20 μL, and cultures were then incubated at 37° C., 5% CO2 for 24 hours. […] Untreated negative control cultures consisted of PBMC exposed to phosphate-buffered saline in the absence of test products. All treatments, including each dose of test product and each positive and negative control, were tested in triplicate. After 24 hours, cells were transferred to V-bottom microtiter plates, washed in PBS containing bovine serum albumin and sodium azide, and stained for 10 minutes with fluorochrome-labeled anti-CD3, anti-CD56, and anti-CD69 monoclonal antibodies at the recommended concentration. PBMC were then fixed in formalin. The fluorescence intensities for CD3, CD56, and CD69 were measured by flow cytometry, using an Attune acoustic-focusing flow cytometer (Thermo Fisher Scientific, Waltham, Mass., USA). Data analysis utilized gating on forward and side scatter to evaluate CD69 expression on lymphocyte versus monocyte/macrophage subsets. The lymphocyte subpopulation was further analyzed for CD69 expression on CD3−CD56+ NK cells, CD3+CD56+ NKT cells, CD3+CD56− T cells, and non-NK non-T lymphocytes.
After 24 hours of incubation, after transfer to V-bottom microtiter plates and before cells were stained for flow cytometry analysis, the culture supernatants were harvested from the PBMC cultures described above. Levels of cytokines, chemokines, and growth factors were quantified using Bio-Plex protein arrays (Bio-Rad Laboratories Inc., Hercules Calif., USA) and utilizing xMAP technology (Luminex, Austin, Tex., USA).

Substance: lipopolysaccharide [LPS]
- CD69 percent change compared to untreated control cultures, NK cells [1]: 114±10%
- CD69 percent change compared to untreated control cultures, NKT cells [1]: 54±8.3%
- CD69 percent change compared to untreated control cultures, T lymphocytes [1]: 19±2.1%
- G-CSF level [2]: 1,458±58 pg/mL
- IFN-γ level [2]: 71 ± 2 pg/mL
- IL-1ra level [2]: 8,134±473 pg/mL
- IL-1β level [2]: 772 ± 28 pg/mL
- IL-10 level [2]: 301 ± 15 pg/mL
- MCP-1 level [2]: 2,052±35 pg/mL
- MIP-1α level [2]: 2,116±0 pg/mL
- MIP-1β level [2]: 6,497±814 pg/mL
- TNF-α level [2]: 7,073±185 pg/mL
- VEGF level [2]: 421 ± 17 pg/mL
- bFGF level [2]: 221 ± 8 pg/mL
